Results on 6 molecules are retold here after patent US8580321B2, “Method for reducing the effects of chemotherapy using flagellin related polypeptides” (priority 2003, dated 2013).

Series [1] has as its system C57B1/6J mice treated with gamma radiation. The series is described as follows: Radioprotection of mice by p53 inhibitor PFTα. It is filed as in vivo, mouse. As to conditions: I.P. 10 mg/kg.
The test system is the same in series [2]. As to conditions: Komarov et al 1999; cited from earlier work.
The subject of series [3] is NIH Swiss mice treated with cisplatinum. As to conditions: 10 mg/kg, after two weeks, n=11.
The test system is the same in series [4]. As to conditions: i.p.; cited from earlier work.
For series [5] the following is noted: in vivo; cited from earlier work.
In series [6] the test system is lethally irradiated mice. As to conditions: cited from earlier work.
Series [7] deals with NF-κB. The series is described as follows: NF-κB-regulated luciferase reporter assay in H116 human colon cancer cells. The format is cell-based. From the text:
While translocation of NF-κB to the nucleus is a crucial step in induction of NF-κB-regulated inhibitors of apoptosis, it is not sufficient in itself. To directly test the ability of selected fragments to induce expression of NF-κB-regulated genes, we performed reporter assay experiments. Flagellin and the AA′, BB′, A′ and B′ fragments were used for treatment of H116 human colon cancer cells carrying luciferase gene under a NF-κB-responsive promoter. The reporter construct contained three NF-κB-binding sites from the E-selectin promoter combined with a Hsp70 minimal promoter that is routinely used for the detection of NF-κB status of cells. Luciferase activity was measured in cell lysates six hours after addition of flagellin or its truncated fragments into the medium. TNF was used as positive control.
In order to study the ability of the AA′ fragments to directly activate NF-κB-regulated transcription, we performed reporter assay experiments as described above for a wide range of concentrations of flagellin, original AA′ and AA′-derived fragments.
(A reporter such as luciferase makes a cellular process visible.)

Series [8] concerns NF-κB. The series is described as follows: EMSA of NF-κB binding activity in HT29 human colon cancer cells. It is filed as cell-based. As to conditions: fragments 1 mg/ml, 15 min. As for the experimental part: We further minimized the AA′ flagellin fragment by producing additional fragments through stepwise removal of peptide fragments from its N-terminal half (Table 2). […] NF-κB binding activity in HT29 cells was stimulated with TNFa (10 ng/ml), or flagellin fragments (1 mg/ml) for 15 min.
For orientation: Mobility shift assays separate free from complexed probe on a gel.

Series [9] concerns NF-κB. As to the kind of experiment: EMSA of NF-κB translocation / DNA binding in A549 cells. As to conditions: A549 cells, 1 μg/ml, 45 min, EMSA of whole cell extracts.

Read-outs that look alike come from different tables or passages of the source. Where only a bound is given, the exact number is not on record here.

Take `Cc1ccc(C(=O)Cn2c3c(sc2=N)CCCC3)cc1` [PFTα, pifithrin-alpha]: in [1], the “protection from single 9 Gy and fractioned cumulative 12.5 Gy (5×2.5 Gy)” value is “protects”; the “survival after single 12.5 and 25 Gy doses of IR” value was “no effect on survival”. Also, the “lethality of wild type animals receiving 6-11 Gy” value in [2] is recorded as “could be reduced”.

For `N.N.[Cl][Pt][Cl]` [cisplatinum], the “mean loss in body weight, cisplatinum alone” value in [3] is recorded as approximately 30%. In addition, in series [4], the “maximum tolerable dose [MTD]” value is reported as 10 mg/kg. The beta deterioration in [5] is 60 min.

As to `C[C@]12CC[C@H]3[C@@H](CC=C4C[C@@H](O)CC[C@@]43C)[C@@H]1CC[C@@H]2O` [5-AED, 5-androstenediol, reference compound], in series [6] (subcutaneous injection in mice 24 h before irradiation), the DMF was 1.26.

Take “AA′n1-170: (1-170)-Linker-(402-505), SEQ ID NO: 30”: the “level of NF-κB-regulated transcription relative to flagellin” value in series [7] (reporter assay, over the studied range of concentrations) is “comparable to such of flagellin”. Besides, the “NF-κB reporter activity relative to flagellin” value in series [7] (very low concentration range) was “more active than flagellin”. Further, in series [8], the “induction of NF-κB translocation” value is “induce NF-κB translocation” and the “level of NF-κB translocation relative to flagellin” value is “comparable to that of flagellin”. For the same molecule, the “NF-κB Stimulation” value in series [9] was “Yes”.

In the case of “SCF: stem cell factor (SCF, c-kit ligand), hematopoietic cytokine and radioprotectant”, the DMF in [6] (lethally irradiated mice) is reported as 1.3-1.35.

B1: Flt-3 ligand: cytokine conferring radioprotection (protein, UniProt P49771 27-235, looked up)
Fms-related tyrosine kinase 3 …: TQDCSFQHSPISSDFAVKIRELSDYLLQDYPVTVASNLQDEELCGGLWRLVLAQRWMERLKTVAGSKMQGLLERVNTEIHFVTKCAFQPPPSCLRFVQTNISRLLQETSEQLVALKPWITRQNFSRCLELQCQPDSSTLPPPWSPRPLEATAPTAPQPPLLLLLLLPVGLLLLAAAWCLHWQRTRRRTPRPGEQVPPVPSPQDLLLVEH
Turning to B1, the DMF in series [6] (lethally irradiated mice) is more than 1.2. For the same molecule, in [6] (mice), the “30-day survival at LD100/30” value is listed as 70-80%.
